{
  "source": "patent US20110059869A1",
  "about": "“Method for Increasing Enzymatic Reactivity” (RIKEN, priority 2008, published 2011)",
  "key": {"[1]": {"test_system": "restriction enzyme PstI", "assay": "PstI cleavage reaction on a spherical bead surface (DNA fragment III)", "assay_type": "biochemical", "settings": "DNA adsorbed to beads, 0.6 M trehalose vs none", "method": "Biotin-labeled DNA fragment III (Seq. ID No. 6, Scheme 4) was cleaved at the restriction enzyme PstI site on the surface of streptavidin beads and the 104 by DNA fragment released was examined. DNA fragment III (500 ng) and 2× binding buffer were admixed in equal volume quantities, a solution of beads suspended in 1× binding buffer was added, and the mixture was gently stirred with top to bottom inversion and rotation for 15 minutes at room temperature to induce adsorption. The beads onto which the sample had adsorbed were recovered with a magnetic stand, washed three times with 1× binding buffer, and washed once with 1× PstI buffer. Two types of reaction solution (1× PstI buffer, 1× BSA restriction enzyme 40 units) were prepared: a trehalose (+) system to which D(+)-trehalose was added to a final concentration of 0.6 M, and a trehalose (−) system to which no trehalose was added. Each of the reaction solutions was admixed to beads that had been washed and the mixtures were reacted for three hours at 37° C. The beads were recovered with the magnetic stand and cleaved with restriction enzyme. […] The precipitate of DNA fragments obtained was dissolved in 1× TE (pH 7.5) and analyzed with Bioanalyzer DNA 1000 assay (Agilent Technologies)."}, "[2]": {"test_system": "restriction enzyme PstI", "assay": "PstI cleavage reaction on a horizontal plate surface (DNA fragment III)", "assay_type": "biochemical", "settings": "horizontal plates, 0.6 M trehalose vs none", "method": "Biotin-labeled DNA fragment III (Seq. ID No. 6, Scheme 4) was cleaved at the restriction enzyme PstI site on a horizontal streptavidin coated plate surface and the 104 by DNA fragment released was examined. To the DNA fragment III (500 ng) was admixed an equal volume of 2× binding buffer. The mixture was added to the wells of a plate that had been washed with 1× binding buffer and stirred and adsorbed while being gently vibrated for 15 minutes at room temperature. The supernatant was removed, washed three times with 1× binding buffer, and washed once with 1× PstI buffer. Two types of reaction solution (1× PstI buffer, 1× BSA restriction enzyme 40 units) were prepared: a trehalose (+) system to which D(+)-trehalose was added to a final concentration of 0.6 M, and a trehalose (−) system to which no trehalose was added. Each of the reaction solutions was added to wells that had been washed, and then reacted for three hours at 37° C. Cleavage was conducted with restriction enzyme. The supernatant containing the DNA fragments that had been released was recovered, reacted with proteinase K, treated with phenol chloroform, and precipitated from ethanol. The precipitate of DNA fragments obtained was dissolved in 1× TE (pH 7.5) and analyzed with Bioanalyzer DNA 1000 assay (Agilent Technologies)."}},
  "data": [
    {"smiles": "OC[C@H]1O[C@H](O[C@H]2O[C@H](CO)[C@@H](O)[C@H](O)[C@H]2O)[C@H](O)[C@@H](O)[C@@H]1O", "note": "[trehalose, D(+)-trehalose]", "values": [
      {"measurement": "yield of released DNA fragment", "setting": "[1]", "value": "higher yield"},
      {"measurement": "yield of released DNA fragment", "setting": "[2]", "value": "higher yield"}
    ]}
  ]
}
